In PMC6104605, “Discovery of new chromen-4-one derivatives as telomerase inhibitors through regulating expression of dyskerin” (Journal of Enzyme Inhibition and Medicinal Chemistry, 2018):

Assays:
[1] = test system: human liver cancer cell SMMC-7721; assay: MTT anticancer assay, SMMC-7721; format: cell-based; conditions: 48 h exposure, mean ± SD
Description: (§1) The MTT was purchased from Sigma. Cell Cycle Analysis Kit and Apoptosis Analysis Kit were purchased from Bestbio (China). Mitochondrial membrane potential assay kit with JC-1 was purchased from Beyotime (China). All the materials were used as received without further purification unless noted specifically. The cell culture was maintained on DMEM medium (Hyclone, US) supplemented with 10% fetal bovine serum (Sijiqing, China), 100 U/mL penicillin and 100 µg/mL streptomycin in 25-cm^2 culture flasks at 37 °C humidified atmosphere with 5% CO2. Drugs were dissolved in DMSO and filtered through 0.22-µm pore-size filter units before addition to cell line appropriate media. When tumor cells were grown to log phase, diluting to 5 × 10^4 cells mL^−1 with the complete medium, 100 µL of the obtained cell suspension was added to each well of 96-well culture plates. The subsequent incubation was performed at 37 °C, 5% CO2 atmosphere for 48 h before subjecting to anti-proliferation assessment. After 48-h exposure period, 20 µL of PBS containing 5 mg·mL^−1 of MTT was added to each well. After 4 h, the medium was replaced by 150 µL DMSO to dissolve the purple formazan crystals produced. The absorbance at 492 nm of each well was measured on an ELISA plate reader. The data represented the mean of three experiments in triplicate and were expressed as means ± SD. The IC50 value was defined as the concentration at which 50% of the cells could survive. The following human tumor cell lines were used in the assay: human gastric cancer cells SGC-7901, human liver cancer cell SMMC-7721 and HepG2, human cervical cancer cell Hela and human glioma cell U87.

NHP2 = assay: Western blot, NHP2; format: cell-based, human; conditions: SGC-7901, 1, 2 and 4 μM, 48 h
Description: An equivalent volume of 5 × SDS-sample buffer was added to cell lysates and boiled for 10 min. The supernatants were subjected to electrophoresis on SDS-PAGE gels and transferred to PVDF membrane by using a Bio-Rad apparatus. Membranes were blocked for 3 h at room temperature in TBST containing 5% non-fat dried milk and probed overnight at 4 °C with antibodies. CyclinD1 (abcam, ab134175, 1:10000), CDC25A (abcam, ab156574, 1:1000), CDC25C (abcam, ab32051, 1:1000), bcl-2 (abcam, ab32124,1:1000), bax (abcam, ab32503, 1:1000), PARP (abcam, ab191217, 1:1000), γH2AX (abcam, ab81299, 1:5000), dyskerin (abcam, ab156877, 1:1000), NHP2 (abcam, ab180498, 1:1000), NOP10 (abcam, ab133726, 1:1000) antibody was performed with rabbit primary antibody. Otherwise, β-actin (ZSGB-BIO, 1:1000) detection was performed with mouse primary antibody which was served as internal controls. Protein bands of β-actin was visualised using peroxidase-labeled goat anti-mouse and others were visualised using peroxidase-labeled goat anti-rabbit secondary antibody (1:5000 dilution, 1 h, room temperature), and the protein expression signals were detected by the BeyoECL Plus (Beyotime).

dyskerin = assay: Immunofluorescence staining of dyskerin localisation; format: cell-based, human; conditions: SGC-7901, 2 µM, 48 h
Description: SGC-7901 cells were grown on glass coverslips in a 6-well culture plate until approximately 30–40% confluent and then treated with compound 5i for 48 h. The coverslips were fixed in 4% paraformaldehyde for 15 min, followed by 0.5% Triton X-100 for 30 min at room temperature. Fixed and permeabilised cells were blocked with 3% BSA for 30 min at room temperature. Then, the cells were respectively immunolabeled with the appropriate primary and secondary antibodies. FITC-conjugated anti-rabbit IgG (ZSBIO, 1:100) for dyskerin emit green fluorescence. DAPI was used for nuclear staining.

[2] = test system: human cervical cancer cell Hela; assay: MTT anticancer assay, Hela; format: cell-based; conditions: MTT, 48 h exposure, mean ± SD, read-out: IC50 Hela
Description: as §1, with “The absorbance at 492 nm of each well was measured on an ELISA plate reader.” left out, “SD.” for “SD. The IC50 value was defined as the concentration at which 50% of the cells could survive. The following human tumor cell lines were used in the assay: human gastric cancer cells SGC-7901, human liver cancer cell SMMC-7721 and HepG2, human cervical cancer cell Hela and human glioma cell U87.”

Compound: COc1cc(OC)c2c(=O)c(OCCCCN3CCN(C(=O)c4ccncc4)CC3)c(-c3cc(OC)c(OC)c(OC)c3)oc2c1 [Compound 5i, 3-(4-(4-isonicotinoylpiperazin-1-yl)butoxy)-5,7-dimethoxy-2-(3,4,5-trimethoxyphenyl)-4H-chromen-4-one]
- IC50 [1]: 1330 ± 140 nM
- NHP2 protein level (western blot) (NHP2): no significant changes
- cytoplasm localisation dyskerin (immunofluorescence) (dyskerin): significantly reduced
- nucleus dyskerin (immunofluorescence) (dyskerin): almost all the nucleus dyskerin was disappeared
- IC50 [2]: 1020 ± 210 nM
